Results on four molecules are retold here after patent publication US9617311B2, “Use of PEDF-derived polypeptides for promoting stem cells proliferation and wound healing” (Mackay Memorial Hospital, priority 2011, dated 2017).

For assay [1], the system named is limbal epithelial stem cells (LSCs). As to the kind of experiment: In vitro LSC proliferation, BrdU pulse-labeling with ΔNp63α immunostaining. The assay is classed as cell-based, New Zealand white rabbits. The following applies: BrdU 2 hours; for percentage of BrdU and ΔNp63α-double positive cells per total ΔNp63α-positive cells: 25 nM peptide or 4.5 nM PEDF in medium, control medium 3.0±0.5%, mean±SEM. The text has this: LSCs were isolated from six-month-old New Zealand white rabbits and used for cell-suspension culture in accordance with the method previously described by Cheng et al. (The growth-promoting effect of KGF on limbal epithelial cells is mediated by upregulation of DeltaNp63alpha through the p38 pathway. J Cell Sci 2009; 122 (Pt 24): 4473-4480) and Wang et al. (Importin 13 serves as a potential marker for corneal epithelial progenitor cells. Stem Cells 2009; 27: 2516-2526) with a slight modification. Rabbit limbal tissues were washed in PBS containing 100 U/ml penicillin and 50 μg/ml gentamicin. After carefully removing the iris, and excessive sclera, the limbal rings were exposed to dispase II (1.2 IU/ml in Hanks' balanced salt solution free of Mg^2+ and Ca^2+) at 4° C. for 16 hours. The loosened epithelial sheets were removed with a cell scraper and separated into single cells by enzymatic digestion (0.05% trypsin, and 0.01% EDTA) for 15 min at 37° C. with gentle shaking and transferred to a stop medium (9 ml of HEPES-buffered DMEM containing 10% FBS). Cells were then collected by centrifugation (400×g for 5 min).
About 1×10^5 cells were seeded on each wells of a 6-well plate and incubated in a DMEM/Ham's F-12 basal medium (10 mM HEPES, 5 ng/ml human EGF, 1% SITE liquid medium, antibiotic-antimicotic solutions, 0.5% DMSO and 0.5 μg/ml hydrocortisone) supplemented with 10% FBS for 2 days, and then shifted to a basal medium or basal medium containing 4.5 nM PEDF, 25 nM 39-mer, 25 nM 34-mer, 25 nM 29-mer, 25 nM 25-mer, 25 nM 20-mer, 25 nM 18-mer, 25 nM Mo 29-mer or 25-nM Mo 20-mer. The cells were continued cultivated at 37° C. under 5% CO2 for another 3 days until they reached confluence (passage 0). LSCs were co-cultured with MMC-treated NIH-3T3 fibroblast feeder cells located within trans-well (0.4 μm pore, BD Biosciences, Bedford, Mass.). For passage purpose, near-confluent cells were harvested again by enzymatic treatment (i.e., 0.25% trypsin), and then 1×10^5 subcultured cells were further cultured in the respective medium, and proliferative capacity of cells was compared every 4 days after continuously culture-subculture (passage).
De-paraffinized tissue sections or 4% paraformaldehyde-fixed LSCs were blocked with 10% goat serum and 5% BSA in PBST (PBS containing 0.1% Tween-20) for 1 hour. Staining was done using primary antibodies against ΔNp63α (1:150 dilution), BrdU (1:250 dilution), and keratin-3 (1:250 dilution) at 37° C. for 2 hours, followed by incubation with the appropriate rhodamine- or FITC-conjugated donkey IgG (1:500 dilution) for 1 hour at RT. Nuclei were identified by counterstaining with Hoechst 33258 for 7 minutes. Images were captured using a Zeiss epifluorescence microscope with a CCD camera and photographs were taken by using the Axiovert software.
2×10^5 limbal cells (the 1st passage) were seeded at a slide coated with FNC COATING MIX® solution (Athena Enzyme Systems, Baltimore, Md.) and incubated with a culture medium for one day. BrdU (final, 10 μM) was added to the culture for 2 hours. After being fixed with 4% paraformaldehyde, cells were exposed to cold methanol for 2 minutes, and then treated with 1 N HCl at RT for 1 hour before performing immunofluorescence. For animal study, BrdU was reconstituted in DMSO as stock (80 mM). 10 μl of BrdU mixed with 90 μl of PBS was intraperitoneally injected into mouse 3 hours prior to euthanasia. DNA synthesis was assessed by BrdU labeling with anti-BrdU antibodies.

Assay [2] has as its system corneal wound. Kind of assay: Corneal wound healing in mice, fluorescein staining. Conditions: for corneal re-epithelialization after 48 hours: 20 μl eye ointment with 50 μM peptide once a day, 2 mm wound; for residual epithelial defect, percentage of the original wound: 50 μM peptide eye ointment once a day. It is filed as in vivo, C57BL/6 mice. The method, then: The experiments were performed using eight-week-old female C57BL/6 mice, and the procedures were approved by the Mackay Memorial Hospital Review Board for animal investigation. Animals were anesthetized by an intraperitoneal injection of a mixture of zoletil (6 mg/kg) and xylazine (3 mg/kg). One filter paper (0.9 mm diameter) soaked with 20% ethanol was placed on the central cornea of right eye for one minute and then irrigated extensively with PBS. Subsequently, mechanical epithelial scrape was performed using a punch under a dissection microscope to create a circular injury (2 mm diameter) at the entire corneal region of the mouse eye without encroaching the corneal stroma, limbus or conjunctiva.
Each synthetic peptide (the 39-mer, 34-mer, 29-mer, 25-mer, 20-mer, 18-mer, Mo 29-mer or Mo 20-mer) was reconstituted in DMSO as stock (5 mM) and mixed with TOBREX® eye ointment (Alcon; containing 0.3% Tobramycin and 0.5% Chlorobutanol) to a concentration 50 μM. In each of the treatment group (n=6-10), the right eye was treated with 20 μl eye ointment containing the synthetic peptide once a day after the scrape injury. In the control group (n=20), right eye was treated with 20 μl of eye ointment mixed with vehicle DMSO. Wound size was determined by staining with topical fluorescein (Fluor-I-Strip, Ayerst Laboratories, Philadelphia, Pa.) and photographed with a digital camera. The area of defect was quantified from the photographs using a computer-assisted image analyzer (Adobe Photoshop CS3 10.0) and was calculated as the percentage of residual epithelial defect at each time point/initial wound area.
To investigate the effect of PEDF-derived short peptides on corneal wound healing in mice, corneal wound was created by a circular punch (2 mm diameter), then control eye-ointment or eye-ointment containing the short synthetic PEDF peptide(s) of this invention was applied to the wounded eye, and wound healing was subsequently evaluated by fluorescein staining. No significant differences in the size of the initial abrasion were noted between synthetic PEDF peptide-treated and control mice.

In assay [3] the test system is full-thickness skin excisional wounds. Kind of assay: Skin wound healing in mice, wound area from photographs. It is filed as in vivo, C57L/B6 mice. The following applies: for residual epithelial defects, percentage of the original wound: 25 μl skin ointment with 50 μM peptide once daily. On the procedure: FIG. 6A provides photographs and FIG. 6B is a histogram, and together, they illustrate the skin (epithelial) wound-healing of mice from treatment groups according to another example of the present disclosure. 4 mm punch wounds were made on the dorsal side of C57/B6 mice. Skin ointment was treated once a day. Photographs of the wounded skin and ruler (scale 10 mm) were captured with a CCD camera (Olympus). The residual epithelial defect (%) is presented as percentage of the original wound. Data are shown as mean±SE.
To perform full-thickness skin excision, 8- to 10-week-old C57L/B6 mice were respectively anesthetized by an intraperitoneal injection of a mixture of zoletil (6 mg/kg) and xylazine (3 mg/kg). Two full-thickness skin excisional wounds, 4 mm in diameter were made on either side of the dorsal midline using Sklar Tru-Punch disposable biopsy punch (Sklar, West Chester, Pa., USA). In each treatment group (n=6), the skin wound was treated with 25 μl skin ointment (containing 50 μM synthetic peptide and 0.006 μl DMSO vehicle) once daily after the skin scraping. In the control group (n=6), skin wound was treated with 25 μl of skin ointment with equal concentration of DMSO. Each gram of the above skin ointment contains 5 mg neomycin sulfate and 12.5 mg Bacitracin Zinc. Wounds were left uncovered and harvested 4 and 7 days after injury. Mice were housed individually during the healing period.
The area of wound was quantified from the photographs using a computer-assisted image analyzer (Adobe Photoshop CS3 10.0) and was calculated as the percentage of residual epithelial defect at each time point/initial wound area.

Assay [4] deals with hair follicle stem cells (HFSCs). As to the kind of experiment: In vitro HFSC proliferation, BrdU pulse-labeling with Lgr6 immunostaining. The following applies: 50 nM peptide or 4.5 nM PEDF in medium; BrdU 2 hours; control 31.9±5.6%. It is filed as cell-based, Human. The method, then:
FIG. 5A provides immunofluorescence microscopy photographs and FIG. 5B is a histogram, and together, they illustrate the in vitro proliferation of HFSCs from treatment groups according to one example of the present disclosure. HFSC proliferation was determined by BrdU labeling for 2 hours. HFSCs (Lgr6, green) and BrdU (red) were detected by immunofluorescence microscopy (original magnification, ×1000). Twenty randomly selected fields in each group were photographed, and the percentage of BrdU and Lgr6-double positive cells (pale pink) per total Lgr6-positive cells was calculated. *P<0.001 versus untreated cells.
Human hair follicles were collected from hairs of healthy donors. The follicles were dissected with tweezers under microscope and most of adipose and connective tissue was removed. The bulge region of hair follicle under the sebaceous gland was cut and then bulge fragments (including central isthmus) were transferred into a 35-mm dish containing 1 ml of collagenase A (1 mg/ml; Roche) and incubated for 1.5 hours at 37° C. to digest the collagen capsule. Subsequently, the bulge fragments were transferred into a fresh cell culture dish containing dispase II (2.4 U/ml)/0.05% trypsin and further incubated for 1.5 hours at 37° C. to obtain a single cell suspension.
After mechanical dissection and enzymatic digestion, the suspended bulge cells isolated from five bulge fragments were seeded into a well of 12-well culture plate and incubated with the basal medium for 5 days to facilitate cell adhesion. The basal medium contains four parts Gibco calcium-free Dulbecco's modified Eagle's medium (DMEM) and one part Ham's F12 medium (calcium concentration reached about 0.25 mM) and supplemented with 10% FBS, 10 ng/ml human epidermal growth factor, 500 mg/I L-glutamine, 0.2% bovine pituitary extract, […] hydrocortisone, 1% ITSE as well as antibiotic-antimicotic solutions. Cultivation method was similar to that of Blazejewska et al. (Stem Cells 2009; 27:642). After 5 days of incubation, cells were cultured in the serum-free basal medium or basal medium containing 4.5 nM PEDF, 50 nM 29-mer, or 50 nM 20-mer, until near confluence (about 2 weeks; passage 0). The medium was changed every 2 to 3 days. The bulge cells were co-cultured with 3T3 fibroblast feeder cells. For passage, near-confluent cells were harvested by enzymatic treatment (i.e., 0.25% trypsin) for 5 min at 37° C. Approximately 1×10^5 human bulge cells were transferred to a new dish and allowed to grow for 14 days to near confluence (passage 1). […]

The mark [5] stands for this setting: day 4 post-injury, control 61.5±3.2%.
The mark [6] stands for this setting: day 7 post-injury, control 44.5±5.3%.

Regarding “ALSALSLGAEQRTESIIHRALYYDLISSPDIHGT [34-mer, short synthetic PEDF peptide derived from the 39-mer]”, in assay [1], the “percentage of BrdU and ΔNp63α-double positive cells per total ΔNp63α-positive cells” value (“percentage … per total ΔNp63α-positive cells” below) was 30.0±3.4%. Moreover, the “corneal re-epithelialization after 48 hours” value (from here on “corneal re-epithelialization”) in assay [2] is listed as “complete corneal re-epithelialization”. Besides, the “residual epithelial defect, percentage of the original wound” value is 40.6±7.2% in assay [2] (24 hours, control 84.9±5.1%) and 4.6±2.1% in assay [2] (48 hours, control 39.5±3.1%). Besides, the results for the “residual epithelial defects, percentage of the original wound” value in assay [3] (setting [5]) and in assay [3] (setting [6]) were 41.4±2.5% and 17.9±6.1%, respectively.

Turning to EQRTESIIHRALYYDLISSPDIHGT [25-mer], the “enhanced LSC proliferation versus control medium” value in assay [1] (25 nM peptide in medium) is on record as “enhanced proliferation was not observed”. Besides, the “corneal re-epithelialization” value in assay [2] was “incompletely healed wounds”. Besides, in assay [3] (days 4 and 7, 50 μM peptide skin ointment once daily), the “promotion of skin wound healing” value is reported as “not able to promote wound healing”.

Take “LSVATALSALSLGAEQRTESIIHRALYYDLISSPDIHGT [39-mer, synthetic peptide, residues 83-121 of human PEDF]”: the “percentage … per total ΔNp63α-positive cells” value in assay [1] is given as 30.1±1.9%. Also, the “corneal re-epithelialization” value in assay [2] is listed as “complete corneal re-epithelialization”. The “residual epithelial defect, percentage of the original wound” value in assay [2] (24 hours, control 84.9±5.1%) was 37.2±4.3%; in assay [2] (48 hours, control 39.5±3.1%), 4.8±2.7%. Also, the “residual epithelial defects, percentage of the original wound” value in assay [3] (setting [5]) amounted to 48.1±3.2%; in assay [3] (setting [6]), 18.4±5.7%.

B1: full-length PEDF: Native human pigment epithelium-derived factor purified from human plasma via collagen I-sepharose resin (protein, listed as Homo sapiens)
chain: MQALVLLLCIGALLGHSSCQNPASPPEEGSPDPDSTGALVEEEDPFFKVPVNKLAAAVSNFGYDLYRVRSSTSPTTNVLLSPLSVATALSALSLGAEQRTESIIHRALYYDLISSPDIHGTYKELLDTVTAPQKNLKSASRIVFEKKLRIKSSFVAPLEKSYGTRPRVLTGNPRLDLQEINNWVQAQMKGKLARSTKEIPDEISILLLGVAHFKGQWVTKFDSRKTSLEDFYLDEERTVRVPMMSDPKAVLRYGLDSDLSCKIAQLPLTGSMSIIFFLPLKVTQNLTLIEESLTSEFIHDIDRELKTVQAVLTVPKLKLSYEGEVTKSLQEMKLQSLFDSPDFSKITGKPIKLTQVEHRAGFEWNEDGAGTTPSPGLQPAHLTFPLDYHLNQPFIFVLRDTDTGALLFIGKILDPRGP
For the molecule B1, the “percentage … per total ΔNp63α-positive cells” value in assay [1] is 22.0±1.5%. For the same molecule, in assay [4], the “percentage of BrdU and Lgr6-double positive cells per total Lgr6-positive cells” value stood at 73.8±6.0%.
